Measurements as given in patent US8609669B2, “Potassium channel modulators” (AbbVie Inc., priority 2010, dated 2013).

Target: T1, KCNQ 2/3 channels (HEK293 cells stably expressing human KCNQ2 and KCNQ3 subunits) (Homo sapiens, UniProt O43525+O43526)
T1 construct: expressed in transfected cells; host or cells: HEK293
Test: KCNQ2/3 channel activation, thallium flux FLIPR assay (BTC-AM dye)
Assay type: cell-based
Conditions: for Emax: HEK293, maximum response relative to response of retigabine at 10 μM (set at 100%), read-out: Max. %; for EC50: HEK293 cells expressing human KCNQ2 and KCNQ3, FLIPR thallium flux
Summary of the method: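 HEK293 cells stably expressing human KCNQ2/KCNQ3 were loaded with BTC-AM and exposed to compound for 4 min in pH 7.3 gluconate buffer with ouabain. Thallium flux was triggered with 6 mM TlNO3 and 10 mM K2SO4 (stock additions) and fluorescence (ex 488, em 540 nm) recorded for 3 min. EC50 came from responses over baseline; maximal response is relative to 10 μM retigabine (100%).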

Emax [%]	EC50 [nM]	Compound
67	> 10000	Cc1cnc2c(-c3ccc(F)c(C)c3)c(NC(=O)CS(=O)(=O)C3CCCC3)nn2c1 [Example 174, 2-(cyclopentylsulfonyl)-N-[3-(4-fluoro-3-methylphenyl)-6-methylpyrazolo[1,5-a]pyrimidin-2-yl]acetamide]
148	< 100	Cc1ccnc2c(-c3ccc(OC(F)(F)F)cc3)c(NC(=O)CC3CC4CCC3C4)nn12 (racemic) [Example 160, (±)-exo-2-bicyclo[2.2.1]hept-2-yl-N-{7-methyl-3-[4-(trifluoromethoxy)phenyl]pyrazolo[1,5-a]pyrimidin-2-yl}acetamide]
116	1000 to 10000	COc1ccc(CC(=O)Nc2nn3cccnc3c2C(C)(C)C)cc1 [Example 155, N-(3-tert-butylpyrazolo[1,5-a]pyrimidin-2-yl)-2-(4-methoxyphenyl)acetamide]
191	100 to 500	CC(C)(C)c1c(NC(=O)Cc2ccc(Cl)cc2)nn2cccnc12 [Example 152, N-(3-tert-butylpyrazolo[1,5-a]pyrimidin-2-yl)-2-(4-chlorophenyl)acetamide]
155	< 100	Cc1cc(C)n2nc(NC(=O)CCC3CCCC3)c(C(C)C)c2n1 [Example 122, 3-cyclopentyl-N-(3-isopropyl-5,7-dimethylpyrazolo[1,5-a]pyrimidin-2-yl)propanamide]
138	< 100	CC(C)(C)c1c(NC(=O)C[C@@H]2CC[C@H]3C[C@@H]2C3(C)C)nn2cccnc12 [Example 171, N-(3-tert-butylpyrazolo[1,5-a]pyrimidin-2-yl)-2-[(1S,2S,5S)-6,6-dimethylbicyclo[3.1.1]hept-2-yl]acetamide]
177	1000 to 10000	CC(C)(C)c1c(NC(=O)CC2CCC3CC23)nn2cccnc12 (stereo not drawn) [Example 175, 2-[(cis)-bicyclo[3.1.0]hex-2-yl]-N-(3-tert-butylpyrazolo[1,5-a]pyrimidin-2-yl)acetamide]

Continued, compound first:

Compound	Emax [%]	EC50 [nM]
Cc1cc(C)n2nc(NC(=O)CC3CCCCC3)c(-c3ccc(Cl)cc3)c2n1 [Example 42, N-[3-(4-chlorophenyl)-5,7-dimethylpyrazolo[1,5-a]pyrimidin-2-yl]-2-cyclohexylacetamide]	142	100 to 500
Cc1cnc2c(-c3ccc(C(F)(F)F)c(F)c3)c(NC(=O)CC3CCCC3)nn2c1 [Example 87, 2-cyclopentyl-N-{3-[3-fluoro-4-(trifluoromethyl)phenyl]-6-methylpyrazolo[1,5-a]pyrimidin-2-yl}acetamide]	239	100 to 500
Cc1cc(C)n2nc(NC(=O)CCc3ccccc3)c(-c3ccc(Cl)c(C)c3)c2n1 [Example 47, N-[3-(4-chloro-3-methylphenyl)-5,7-dimethylpyrazolo[1,5-a]pyrimidin-2-yl]-3-phenylpropanamide]	125	100 to 500
COc1ccc(CC(=O)Nc2nn3cc(C)cnc3c2CC(C)(C)C)cc1 [Example 18, N-[3-(2,2-dimethylpropyl)-6-methylpyrazolo[1,5-a]pyrimidin-2-yl]-2-(4-methoxyphenyl)acetamide]	156	1000 to 10000
Cc1cc(C)n2nc(NC(=O)CC3CCCCC3)c(-c3ccc(F)c(C)c3)c2n1 [Example 34, 2-cyclohexyl-N-[3-(4-fluoro-3-methylphenyl)-5,7-dimethylpyrazolo[1,5-a]pyrimidin-2-yl]acetamide]	166	< 100
COc1cccc(CC(=O)Nc2nn3c(C)cc(C)nc3c2-c2cccc(Cl)c2)c1 [Example 54, N-[3-(3-chlorophenyl)-5,7-dimethylpyrazolo[1,5-a]pyrimidin-2-yl]-2-(3-methoxyphenyl)acetamide]	67	1000 to 10000
O=C(NCC1CCCCC1)Nc1nn2cccnc2c1-c1ccc(Cl)cc1 [Example 99, 1-[3-(4-chlorophenyl)pyrazolo[1,5-a]pyrimidin-2-yl]-3-(cyclohexylmethyl)urea]	94	1000 to 10000
